Where a SMILES comes first, the peptide text is derived from it. Bridges are numbered along the chain shown (N, C = ends). [ ]: non-standard residue; d: D form. The star is where a group is joined. hPhe(3-Cl-4-CF3) = N[C@@H](CCc1ccc(C(F)(F)F)c(Cl)c1)C(=O)O; NPrPhe(4-CF3) = CCCN[C@@H](Cc1ccc(C(F)(F)F)cc1)C(=O)O; NEtPhe(4-Me) = CCN[C@@H](Cc1ccc(C)cc1)C(=O)O; NMeGly(cPent) = CN[C@H](C(=O)O)C1CCCC1; Pro(4,4-Me2) = CC1(C)CN[C@H](C(=O)O)C1; Hyp = O=C(O)[C@@H]1C[C@@H](O)CN1; NMeD = CN[C@@H](CC(=O)O)C(=O)O; NMeL = CN[C@@H](CC(C)C)C(=O)O; Morpholide = C1CN(*)CCO1; NMeA = CN[C@@H](C)C(=O)O; Ac5c = NC1(C(=O)O)CCCC1; Aze = O=C(O)[C@@H]1CCN1; X4 = C1CCC(*)OC1; Sar = CNCC(=O)O
What was measured:
[1] = biological target: GDP-bound NRAS wild-type protein (Homo sapiens, UniProt P01111); experiment: Binding to NRAS by surface plasmon resonance (SPR), KD and KD ratio to KRAS
Sequence of GDP-bound NRAS wild-type protein (P01111 whole entry): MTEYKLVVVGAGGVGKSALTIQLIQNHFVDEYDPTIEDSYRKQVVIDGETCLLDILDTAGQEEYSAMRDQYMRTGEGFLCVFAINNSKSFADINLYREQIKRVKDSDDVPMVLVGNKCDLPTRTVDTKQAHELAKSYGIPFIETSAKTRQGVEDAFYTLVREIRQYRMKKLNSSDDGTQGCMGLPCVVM
How it was run: (§1)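 Measured at 30°C: SPR with GDP-loaded, E. coli-expressed biotin-Avi RAS captured (~100–300 RU), ascending 75 s compound injections, HBS pH 7.4 with GDP, MgCl2, 4% DMSO. KD from 1:1 fit.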

[2] = biological target: GDP-bound KRAS wild-type protein (Homo sapiens, UniProt P01116); experiment: Binding to KRAS by surface plasmon resonance (SPR), dissociation constant KD
Sequence of GDP-bound KRAS wild-type protein (P01116 1-188 isoform P01116-2): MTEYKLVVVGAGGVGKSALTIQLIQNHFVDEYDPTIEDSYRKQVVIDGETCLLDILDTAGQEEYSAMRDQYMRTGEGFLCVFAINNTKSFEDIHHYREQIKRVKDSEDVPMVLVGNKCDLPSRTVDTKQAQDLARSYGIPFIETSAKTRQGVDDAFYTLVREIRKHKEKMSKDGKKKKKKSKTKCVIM
How it was run: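 GDP-bound biotin-Avi RAS captured at ~100–300 RU, 30°C, pH 7.4 HBS containing 10 µM GDP, 10 mM MgCl2, 1 mM DTT, 0.01% Tween 20 and 4% DMSO. KD by 1:1 fitting.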

HRAS wild-type protein = HRAS wild-type protein (Homo sapiens, UniProt P01112); experiment: Binding to HRAS by surface plasmon resonance (SPR), KD and KD ratio to KRAS
Sequence of HRAS wild-type protein (P01112 whole entry): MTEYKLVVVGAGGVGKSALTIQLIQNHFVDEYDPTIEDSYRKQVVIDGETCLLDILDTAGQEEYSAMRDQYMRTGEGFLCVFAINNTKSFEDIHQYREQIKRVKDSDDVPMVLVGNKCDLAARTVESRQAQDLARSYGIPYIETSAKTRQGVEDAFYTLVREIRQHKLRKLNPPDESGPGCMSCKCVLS
How it was run: as §1

[3] = test system: human lung cancer strain NCI-H441; type: cell-based
How it was run: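 Signal came from […] measured per well once the reagent was added. Beforehand, cells were cultured at 37°C and 5% carbon dioxide on a compound series serially diluted in dimethyl sulfoxide.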

[4] = ratio of KD for GDP-bound NRAS wild-type protein to KD for KRAS
[5] = ratio of KD for HRAS wild-type protein to KD for KRAS
[6] = ratio of the KD value with respect to GDP-bound NRAS wild-type protein to the KD value with respect to KRAS
[7] = Single Cycle Kinetics, 1:1 binding model
[8] = ratio of the KD value with respect to HRAS wild-type protein to the KD value with respect to KRAS

Structure (SMILES) | Kd ([2]; 1:1 binding model) | IC50 [3] | Kd [2, 7] | Kd ([2]; Single Cycle Kinetics) | NRAS /KRAS [1, 4] | HRAS /KRAS (HRAS wild-type protein; [5]) | NRAS /KRAS [1, 6] | HRAS /KRAS (HRAS wild-type protein; [8]) | NRAS /KRAS ([1]; ratio of KD value for GDP-bound NRAS wild-type protein to KD value for KRAS (SPR)) | HRAS /KRAS (HRAS wild-type protein; ratio of KD value for HRAS wild-type protein to KD value for KRAS (SPR))
CCCC[C@H]1C(=O)N[C@@H]([C@@H](C)CC)C(=O)N(C)CC(=O)N(C)[C@H]2C/C=C\CCN(C2=O)[C@@H](Cc2ccc(C)cc2)C(=O)N(C)CC(=O)N[C@@H](CCc2cc(F)c(C(F)(F)F)c(F)c2)C(=O)N2C[C@H](OCC)C[C@H]2C(=O)NC2(CC(C)(C)C2)C(=O)N(C)[C@@H](C2CCCC2)C(=O)N(C)[C@H](C(=O)N(C)C)CC(=O)N1C [PP2800] | 0.056 nM | 7.9 nM | – | – | A (a compound having 10 or more and less than 20 is denoted as A) | A (a compound having 10 or more and less than 20 is denoted as A) | – | – | – | –
CCCN1C(=O)CN(C)C(=O)[C@@H]2CCN2C(=O)[C@H]([C@@H](C)CC)NC(=O)[C@H](CC(C)C)N(C)C(=O)C[C@@H](C(=O)N2CCOCC2)N(C)C(=O)[C@H](C2CCCC2)N(C)C(=O)C2(CCCC2)NC(=O)[C@@H]2CC(C)(C)CN2C(=O)[C@H](CCc2ccc(C(F)(F)F)c(Cl)c2)NC(=O)CN(C)C(=O)[C@@H]1Cc1ccc(C(F)(F)F)cc1 [PP0452] ([NMeL]I[Aze][Sar][NPrPhe(4-CF3)][Sar][hPhe(3-Cl-4-CF3)][Pro(4,4-Me2)][Ac5c][NMeGly(cPent)][NMeD]-Morpholide; lactam N-11) | – | 34.1 nM | 0.73 nM | – | – | – | B (a compound having 3 or more and less than 10 is denoted as B) | B (a compound having 3 or more and less than 10 is denoted as B) | – | –
CC[C@H](C)[C@@H]1NC(=O)[C@H](CC(C)C)N(C)C(=O)C[C@@H](C(=O)N2CCOCC2)N(C)C(=O)[C@H](C2CCCC2)N(C)C(=O)C2(CCCC2)NC(=O)[C@@H]2C[C@@H](OC3CCCCO3)CN2C(=O)[C@H](CCc2ccc(C(F)(F)F)c(Cl)c2)NC(=O)CN(C)C(=O)[C@H](Cc2ccc(C)cc2)N(CC)C(=O)[C@@H]2CCN2C(=O)[C@H](C)N(C)C1=O (some centres unmarked) [PP0067] ([NMeL]I[NMeA][Aze][NEtPhe(4-Me)][Sar][hPhe(3-Cl-4-CF3)][Hyp](X4)[Ac5c][NMeGly(cPent)][NMeD]-Morpholide; lactam N-11) | 0.072 nM | 2.7 nM | – | – | C (A compound having a KD ratio of 0.1 or more and less than 3 is denoted as C) | C (A compound having a KD ratio of 0.1 or more and less than 3 is denoted as C) | – | – | – | –
CCO[C@@H]1C[C@H]2C(=O)NC3(CCC3)C(=O)N(C)[C@@H](C3CCCC3)C(=O)N(C)[C@H](C(=O)N(C)C)CC(=O)N(CC)[C@@H](CC(C)C)C(=O)N[C@@H]([C@@H](C)CC)C(=O)N(C)CC(=O)N(C)[C@H]3CC(C)=C(C)CN(C3=O)[C@@H](Cc3ccc(C(F)(F)F)cc3)C(=O)N(C)CC(=O)N[C@@H](CCc3cc(F)c(C(F)(F)F)c(F)c3)C(=O)N2C1 [PP1051] | – | 286 nM | – | 1.8 nM | C (A compound having a KD ratio of 0.1 or more and less than 3 is denoted as C) | C (A compound having a KD ratio of 0.1 or more and less than 3 is denoted as C) | – | – | – | –
CCO[C@@H]1C[C@H]2C(=O)NC3(CC(C)(C)C3)C(=O)N(C)[C@@H](C3CCCC3)C(=O)N(C)[C@H](C(=O)N(C)CC)CC(=O)N(C)[C@@H](CC(C)C)C(=O)N[C@@H]([C@@H](C)CC)C(=O)N(C)CC(=O)N(C)[C@H]3C/C=C\CCN(C3=O)[C@@H](Cc3ccc(C(F)F)cc3)C(=O)N(C)CC(=O)N[C@@H](CCc3ccc(C(F)(F)F)c(C4CC4)c3)C(=O)N2C1 [PP3151] | 0.23 nM | 18.6 nM | – | – | A (a compound having 10 or more and less than 20 is denoted as A) | A (a compound having 10 or more and less than 20 is denoted as A) | – | – | – | –

More lines, in order of falling IC50 [3], values ahead:

Kd ([2]; 1:1 binding model) | IC50 [3] | Kd [2, 7] | Kd ([2]; Single Cycle Kinetics) | Structure (SMILES) | NRAS /KRAS [1, 4] | HRAS /KRAS (HRAS wild-type protein; [5]) | NRAS /KRAS [1, 6] | HRAS /KRAS (HRAS wild-type protein; [8]) | NRAS /KRAS ([1]; ratio of KD value for GDP-bound NRAS wild-type protein to KD value for KRAS (SPR)) | HRAS /KRAS (HRAS wild-type protein; ratio of KD value for HRAS wild-type protein to KD value for KRAS (SPR))
– | 690 nM | 2 nM | – | CC[C@H](C)[C@@H]1NC(=O)[C@H](CC)N(C)C(=O)C[C@@H](C(=O)N(C)C)N(C)C(=O)[C@H](C2CCCC2)N(C)C(=O)C2(CCC2)NC(=O)[C@@H]2CCN2C(=O)[C@H](CCc2cc(F)c(C(F)(F)F)c(F)c2)NC(=O)CN(C)C(=O)[C@H](Cc2ccc(C(F)(F)F)cc2)N2CCCCC[C@@H](C2=O)N(C)C(=O)CN(C)C1=O [PP0654] | – | – | B (a compound having 3 or more and less than 10 is denoted as B) | B (a compound having 3 or more and less than 10 is denoted as B) | – | –
0.64 nM | 62.5 nM | – | – | CCO[C@@H]1C[C@H]2C(=O)NC3(CC(C)(C)C3)C(=O)N(C)[C@@H](C3CCCC3)C(=O)N(C)[C@H](C(=O)N(C)CC)CC(=O)N(C)[C@@H](CC(C)C)C(=O)N[C@@H]([C@@H](C)CC)C(=O)N(C)CC(=O)N(C)[C@H]3C/C=C\CCN(C3=O)[C@@H](Cc3ccc(C(F)F)cc3)C(=O)N(C)CC(=O)N[C@@H](CCc3ccc(C4CC4)c(Cl)c3)C(=O)N2C1 [PP3155] | A (a compound having 10 or more and less than 20 is denoted as A) | A (a compound having 10 or more and less than 20 is denoted as A) | – | – | – | –
0.37 nM | 44.4 nM | – | – | CCC(CC)[C@H]1C(=O)N(C)[C@H](C(=O)N(C)C)CC(=O)N(C)[C@@H](COC)C(=O)N[C@@H]([C@@H](C)CC)C(=O)N(C)CC(=O)N(C)[C@H]2C/C=C\CCN(C2=O)[C@@H](Cc2ccc(C)cc2)C(=O)N(C)CC(=O)N[C@@H](CCc2ccc(Cl)c(Cl)c2)C(=O)N2C[C@H](OC(C)C)C[C@H]2C(=O)N(C)C2(CC(C)(C)C2)C(=O)N1C [PP2814] | AA (a compound having 20 or more is denoted as AA) | A (a compound having 10 or more and less than 20 is denoted as A) | – | – | – | –
0.43 nM | 19.2 nM | – | – | CCO[C@@H]1C[C@H]2C(=O)NC3(CC(C)(C)C3)C(=O)N(C)[C@@H](C3CCCC3)C(=O)N(C)[C@H](C(=O)N(C)C)CC(=O)N(C)[C@@H]([C@@H](C)OC)C(=O)N[C@@H]([C@@H](C)CC)C(=O)N3CCC[C@H]3C(=O)N(C)[C@H]3C/C=C\CCN(C3=O)[C@@H](Cc3ccc(C(F)(F)F)cc3)C(=O)N(C)CC(=O)N[C@@H](CCc3ccc(C(F)(F)F)c(Cl)c3)C(=O)N2C1 [PP3206] | A (a compound having 10 or more and less than 20 is denoted as A) | A (a compound having 10 or more and less than 20 is denoted as A) | – | – | – | –
– | 6.5 nM | 0.11 nM | – | CCO[C@@H]1C[C@H]2C(=O)NC3(CC(C)(C)C3)C(=O)N(C)[C@@H](C3CCCC3)C(=O)N(C)[C@H](C(=O)N(C)C)CC(=O)N(C)[C@@H](CC3CCCC3)C(=O)N[C@@H]([C@@H](C)CC)C(=O)N(C)CC(=O)N(C)[C@H]3C/C=C\CCN(C3=O)[C@@H](Cc3ccc(C(F)(F)F)cc3)C(=O)N(C)CC(=O)N[C@@H](CCc3ccc(C(F)(F)F)c(OC)c3)C(=O)N2C1 [PP1565] | – | – | – | – | A (a compound having 10 or more and less than 20 is denoted as A) | B (a compound having 3 or more and less than 10 is denoted as B)
– | 3.3 nM | 0.12 nM | – | CCCOC[C@H]1C(=O)N[C@@H]([C@@H](C)CC)C(=O)N(C2CC2)CC(=O)N(C)[C@H]2C/C=C\CCN(C2=O)[C@@H](Cc2ccc(C(F)(F)F)cc2)C(=O)N(C)CC(=O)N[C@@H](CCc2ccc(C(F)(F)F)c(OC)c2)C(=O)N2C[C@H](OCC)C[C@H]2C(=O)N(C)C2(CCC2)C(=O)N(C)[C@@H](C2CCCC2)C(=O)N(C)[C@H](C(=O)N(C)C)CC(=O)N1C [PP2318] | – | – | A (a compound having 10 or more and less than 20 is denoted as A) | A (a compound having 10 or more and less than 20 is denoted as A) | – | –
